# Laboratory results reported in patent US6960574B2, “Antagonists of RF-amide neuropeptides” (University of Florida, priority 2002, dated 2005).
# Peptide text beside a SMILES is read from it. * marks the point of attachment. Dansyl = CN(C)c1cccc2c(S(=O)(=O)*)cccc12
# Tested on: receptor labeled by the radioiodinated analogue of 1 (4, [125I]-YLFQPQRF-NH2); neuropeptide FF receptor
# Assay: Competitive radioligand binding against 4 ([125I]Y8F-amide)
# Conditions: mixture-based positional scanning; difference from averaged radioligand displacement of whole library (0); about 80 a.u. = 10-fold change in Ki
row,SMILES,Relative Binding Index (RBI)
1,CC(C)[C@H](NC(=O)[C@H](C)NS(=O)(=O)c1cccc2c(N(C)C)cccc12)C(=O)N[C@@H](CCCNC(=N)N)C(N)=O [Dansyl-AVR-amide] (Dansyl-Ala-Val-Arg-NH2),7 a.u.
2,CN(C)c1cccc2c(S(=O)(=O)N[C@@H](CCCNC(=N)N)C(=O)N[C@@H](Cc3ccccc3)C(=O)N[C@@H](CCCNC(=N)N)C(N)=O)cccc12 [Dansyl-RFR-amide] (Dansyl-Arg-Phe-Arg-NH2),5 a.u.
3,CC[C@H](C)[C@H](NS(=O)(=O)c1cccc2c(N(C)C)cccc12)C(=O)N[C@@H](CC(C)C)C(=O)N[C@@H](CCCNC(=N)N)C(N)=O [Dansyl-ILR-amide] (Dansyl-Ile-Leu-Arg-NH2),−19 a.u.
4,CC(C)[C@H](NS(=O)(=O)c1cccc2c(N(C)C)cccc12)C(=O)N[C@@H](Cc1cnc[nH]1)C(=O)N[C@@H](CCCNC(=N)N)C(N)=O [Dansyl-VHR-amide] (Dansyl-Val-His-Arg-NH2),−10 a.u.
5,CN(C)c1cccc2c(S(=O)(=O)NCC(=O)N[C@@H](CCCCN)C(=O)N[C@@H](CCCNC(=N)N)C(N)=O)cccc12 [Dansyl-GKR-amide] (Dansyl-Gly-Lys-Arg-NH2),23 a.u.
6,CN(C)c1cccc2c(S(=O)(=O)N[C@@H](CC(=O)O)C(=O)N[C@@H](CC(N)=O)C(=O)N[C@@H](CCCNC(=N)N)C(N)=O)cccc12 [Dansyl-DNR-amide] (Dansyl-Asp-Asn-Arg-NH2),−4 a.u.
7,CN(C)c1cccc2c(S(=O)(=O)N[C@@H](CCC(=O)O)C(=O)N[C@@H](CCC(N)=O)C(=O)N[C@@H](CCCNC(=N)N)C(N)=O)cccc12 [Dansyl-EQR-amide] (Dansyl-Glu-Gln-Arg-NH2),30 a.u.
8,CC(C)C[C@H](NC(=O)[C@@H](NS(=O)(=O)c1cccc2c(N(C)C)cccc12)C(C)C)C(=O)N[C@@H](CCCNC(=N)N)C(N)=O [Dansyl-VLR-amide] (Dansyl-Val-Leu-Arg-NH2),−13 a.u.
9,CN(C)c1cccc2c(S(=O)(=O)N[C@@H](Cc3ccccc3)C(=O)N[C@@H](Cc3ccccc3)C(=O)N[C@@H](CCCNC(=N)N)C(N)=O)cccc12 [Dansyl-FFR-amide] (Dansyl-Phe-Phe-Arg-NH2),8 a.u.
10,CC(C)[C@H](NC(=O)[C@@H](NS(=O)(=O)c1cccc2c(N(C)C)cccc12)C(C)C)C(=O)N[C@@H](CCCNC(=N)N)C(N)=O [Dansyl-VVR-amide] (Dansyl-Val-Val-Arg-NH2),−9 a.u.
11,CN(C)c1cccc2c(S(=O)(=O)N[C@@H](CO)C(=O)N[C@@H](CC(N)=O)C(=O)N[C@@H](CCCNC(=N)N)C(N)=O)cccc12 [Dansyl-SNR-amide] (Dansyl-Ser-Asn-Arg-NH2),18 a.u.
12,CSCC[C@H](NS(=O)(=O)c1cccc2c(N(C)C)cccc12)C(=O)N[C@@H](Cc1c[nH]c2ccccc12)C(=O)N[C@@H](CCCNC(=N)N)C(N)=O [Dansyl-MWR-amide] (Dansyl-Met-Trp-Arg-NH2),−35 a.u.
13,C[C@@H](O)[C@H](NS(=O)(=O)c1cccc2c(N(C)C)cccc12)C(=O)N[C@@H](Cc1c[nH]cn1)C(=O)N[C@@H](CCCNC(=N)N)C(N)=O [Dansyl-THR-amide] (Dansyl-Thr-His-Arg-NH2),−14 a.u.
14,CN(C)c1cccc2c(S(=O)(=O)N[C@@H](CC(=O)O)C(=O)N[C@@H](CO)C(=O)N[C@@H](CCCNC(=N)N)C(N)=O)cccc12 [Dansyl-DSR-amide] (Dansyl-Asp-Ser-Arg-NH2),15 a.u.
15,CN(C)c1cccc2c(S(=O)(=O)N[C@@H](CCCNC(=N)N)C(=O)N[C@@H](Cc3c[nH]c4ccccc34)C(=O)N[C@@H](CCCNC(=N)N)C(N)=O)cccc12 [Dansyl-RWR-amide] (Dansyl-Arg-Trp-Arg-NH2),16 a.u.
16,CN(C)c1cccc2c(S(=O)(=O)N[C@@H](CCC(=O)O)C(=O)N[C@@H](CC(N)=O)C(=O)N[C@@H](CCCNC(=N)N)C(N)=O)cccc12 [Dansyl-ENR-amide] (Dansyl-Glu-Asn-Arg-NH2),18 a.u.
17,C[C@@H](O)[C@H](NC(=O)[C@H](Cc1c[nH]c2ccccc12)NS(=O)(=O)c1cccc2c(N(C)C)cccc12)C(=O)N[C@@H](CCCNC(=N)N)C(N)=O [Dansyl-WTR-amide] (Dansyl-Trp-Thr-Arg-NH2),14 a.u.
18,CN(C)c1cccc2c(S(=O)(=O)N[C@@H](Cc3ccccc3)C(=O)N[C@@H](CO)C(=O)N[C@@H](CCCNC(=N)N)C(N)=O)cccc12 [Dansyl-FSR-amide] (Dansyl-Phe-Ser-Arg-NH2),30 a.u.
19,CC(C)[C@H](NS(=O)(=O)c1cccc2c(N(C)C)cccc12)C(=O)N[C@@H](C)C(=O)N[C@@H](CCCNC(=N)N)C(N)=O [Dansyl-VAR-amide] (Dansyl-Val-Ala-Arg-NH2),−53 a.u.
20,CN(C)c1cccc2c(S(=O)(=O)N[C@@H](CC(N)=O)C(=O)N[C@@H](CC(=O)O)C(=O)N[C@@H](CCCNC(=N)N)C(N)=O)cccc12 [Dansyl-NDR-amide] (Dansyl-Asn-Asp-Arg-NH2),−5 a.u.
21,CN(C)c1cccc2c(S(=O)(=O)N[C@@H](CO)C(=O)N[C@@H](CC(=O)O)C(=O)N[C@@H](CCCNC(=N)N)C(N)=O)cccc12 [Dansyl-SDR-amide] (Dansyl-Ser-Asp-Arg-NH2),−2 a.u.
22,CN(C)c1cccc2c(S(=O)(=O)N[C@@H](Cc3c[nH]cn3)C(=O)N[C@@H](Cc3c[nH]cn3)C(=O)N[C@@H](CCCNC(=N)N)C(N)=O)cccc12 [Dansyl-HHR-amide] (Dansyl-His-His-Arg-NH2),11 a.u.
23,CN(C)c1cccc2c(S(=O)(=O)N[C@@H](CC(=O)O)C(=O)NCC(=O)N[C@@H](CCCNC(=N)N)C(N)=O)cccc12 [Dansyl-DGR-amide] (Dansyl-Asp-Gly-Arg-NH2),0 a.u.
24,CC(C)C[C@H](NS(=O)(=O)c1cccc2c(N(C)C)cccc12)C(=O)N[C@@H](Cc1ccc(O)cc1)C(=O)N[C@@H](CCCNC(=N)N)C(N)=O [Dansyl-LYR-amide] (Dansyl-Leu-Tyr-Arg-NH2),−33 a.u.
25,CSCC[C@H](NS(=O)(=O)c1cccc2c(N(C)C)cccc12)C(=O)N[C@@H](CC(N)=O)C(=O)N[C@@H](CCCNC(=N)N)C(N)=O [Dansyl-MNR-amide],−43 a.u.
26,C[C@H](NS(=O)(=O)c1cccc2c(N(C)C)cccc12)C(=O)N[C@@H](Cc1ccccc1)C(=O)N[C@@H](CCCNC(=N)N)C(N)=O [Dansyl-AFR-amide] (Dansyl-Ala-Phe-Arg-NH2),11 a.u.
27,CSCC[C@H](NC(=O)[C@H](CCC(N)=O)NS(=O)(=O)c1cccc2c(N(C)C)cccc12)C(=O)N[C@@H](CCCNC(=N)N)C(N)=O [Dansyl-QMR-amide] (Dansyl-Gln-Met-Arg-NH2),21 a.u.
28,C[C@H](NS(=O)(=O)c1cccc2c(N(C)C)cccc12)C(=O)N[C@@H](CC(=O)O)C(=O)N[C@@H](CCCNC(=N)N)C(N)=O [Dansyl-ADR-amide] (Dansyl-Ala-Asp-Arg-NH2),−6 a.u.
29,CC(C)[C@H](NC(=O)[C@H](Cc1c[nH]cn1)NS(=O)(=O)c1cccc2c(N(C)C)cccc12)C(=O)N[C@@H](CCCNC(=N)N)C(N)=O [Dansyl-HVR-amide] (Dansyl-His-Val-Arg-NH2),12 a.u.
